Laboratory results from publication PMC9562342, “Structural and functional analysis of EntV reveals a 12 amino acid fragment protective against fungal infections” (Nature Communications, 2022).
Where “and” joins values, the source holds several entries; their conditions need not be identical. Equal entries are not always repeated. Entries after “also recorded” stand apart in the source; their conditions may differ. Where two headings read alike, the source gives them in different places. No end group written: not given here.

Key:
[1] = Solubility of peptides (biophysical characteristics); format: physicochemical
From the text: Supplement 41467_2022_33613_MOESM1_ESM.docx, table 2: Supplementary Table 2. Biophysical characteristics of peptides. | column: Solubility

C. albicans [2] = assay: C. elegans killing assay, C. albicans infection; settings: 1 nM peptide; for Median survival: C. albicans infected C. elegans
Procedure: C. elegans glp-4(bn2); sek-1(km-4)[48] nematodes were propagated and maintained on E. coli strain OP50[50] that was seeded onto nematode growth medium (NGM) agar using standard techniques (Hope, 1999). To synchronize the animals, L1 stage worms on non-starved plates were washed off, filtered through a 10 μm filter (pluriSelect, pluriStrainer 10 μm), harvested by centrifugation at 750 xg for 30 seconds, transferred to OP50 seeded plates, and grown to the L4 stage. To prepare the infection plates, Fungal strains were grown in YPD broth for 24 h at 37 °C with agitation. 500 μl of the culture was plated onto BHI solid medium containing gentamycin (10 μg/ml) and grown for 24 h at 37 °C. The synchronized, L4 C. elegans were washed off the OP50 plates in 2 ml sterile M9 buffer and washed once, centrifuging at 750 xg for 30 seconds to collect animals. Animals were infected by placing them on the fungal lawn for 4 h at 25 °C. Following this exposure, they were washed off the plate and washed four times with 2 ml of sterile M9. The nematodes were then pipetted (~30 per well with two wells per condition for a total of ~60 worms assayed) into six-well plates with 2 ml of liquid medium (20% BHI broth and 80% M9) containing the indicated concentrations of test compounds. Plates were incubated at 25 °C, and worm death was scored daily. Kaplan–Meier survival curves were generated and analyzed as described in the quantification and statistical analysis section.

[3] = tested on: C. neoformans strain 40-71; assay: C. elegans killing assay, C. neoformans infection; format: in vivo, Cryptococcus neoformans; settings: 1 nM peptide
C. albicans AzS = assay: C. elegans killing assay, C. albicans paired clinical isolate before fluconazole resistance (Az^S); format: in vivo, Candida albicans
C. albicans AzR = format: in vivo, Candida albicans; settings: C. albicans AzR infected C. elegans, peptides 1 nM, fluconazole 4 ug/ml, Fig 4D
C. albicans [4] = assay: C. albicans adhesion assay (polystyrene plates, crystal violet); format: cell-based, Candida albicans; settings: for Adjusted avg / Avg Percent: Fig 3B, 10 nM, mean of 6 technical replicates; for Adjusted avg: background subtracted; for Avg Percent: relative adherence vs DMSO
Procedure: Similar to the methodology in[51], C. albicans strains were grown in YPD broth for 18 h at 30 °C with agitation and then subcultured for 4 h in the same conditions. […] The cell suspension was incubated for 1 h at 30 °C with agitation. Then 100 µl of the cell suspension was added to wells of a 96 well tissue culture treated polystyrene plate (Falcon) in addition to 100 µl of artificial saliva media[14],[52] containing the indicated concentrations of test compounds. The plate was then incubated at 37 °C for 90 min.
The adhered cell layer was then stained for 20 min with 40 µl of 0.08% crystal violet solution (diluted, Sigma). The crystal violet stain was removed, and the wells were then washed three times with sterile water. Adhered cells were then destained with 200 µl of 200 proof ethanol for 20 min, and 100 µl of the ethanol solution was transferred to a new well for analysis. The optical density at 595 nm (OD595) was measured using a Synergy H1 plate reader (BioTek) with Gen5 version 3.08 software (BioTek).

RBCs = assay: Hemolysis assay; format: cell-based, human; settings: for fractional hemolysis (Toxicity): Extended Fig 6A
Procedure: De-identified and pooled RBCs were purchased from Rockland Immunochemicals, Inc. RBCs were prepared at 6 × 10^7 cells/mL in PBS. To 25 μL of peptide diluted appropriately to result in a final concentration of 1 nM and 1 µM, 125 μL of RBC suspension was added. The plates were gently rocked for 1 h at room temperature. The cells were then removed from suspension by centrifugation at 1000 xg for 5 min. From the experimental plate, 100 μL of the supernatant was carefully withdrawn from each well and added to a new 96-well plate. The absorbance of the solutions in each well was measured at 410 nm and each well was compared to a no-treatment control and a 100% lysis control (1% SDS).

[5] = Peptide serum stability assay; format: in vitro ADME, human
Procedure: One mL of RPMI supplemented with 10% (v/v) of human serum (type AB) were aliquoted and temperature-equilibrated at 37 °C for 15 min before adding a concentrated stock peptide solution resulting in a final peptide concentration of 100 µM. For each time point, 100 µL of the reaction solution was removed and added to 200 µL 96% ethanol for precipitation of serum proteins. The sample was cooled (4 °C) for 15 min and then spun at 18,000 g for 2 min to pellet the precipitated serum proteins. The reaction supernatant was analyzed using HPLC with absorbance detected at 280 nm. The peptide peak was detected first without serum treatment to assess the area under the curve for the peptide of interest. At each time point the area under the curve was calculated by HPLC and then divided by the untreated peptide area under the curve to determine the percent remaining.

C. albicans [6] = assay: Mouse OPC model, fungal burden in tongue by qPCR; format: in vivo
C. albicans [7] = assay: Mouse OPC model, epithelial (hyphal) invasion by histology; format: in vivo
C. albicans [8] = assay: Intravenous infection model (disseminated candidiasis); format: in vivo, mouse; settings: C. albicans pre-incubated with 100 nM peptide for two hours, IV injection, day 22
C. albicans [9] = assay: Rat venous catheter model; format: in vivo; settings: rat jugular vein catheter, 20 nM, 24 h, n of three
Procedure: To quantitate fungal burden after 24 h, the catheter was removed, and 1 cm of the tip placed in a one milliliter of sterile 0.9% NaCl followed by vortexing. A 1:10 serial dilution of this wash fluid was plated on SDA and colonies counted after 24 h of growth at 35 °C. […] Serial ethanol washes and critical point drying were used to dry the segments before they were mounted, and palladium-gold coated.

C. albicans [10] = assay: C. albicans CFUs before and after two-hour pre-incubation with peptide; settings: 100 nM, two-hour incubation in PBS
Procedure: To increase the chances of observing an effect, we pre-incubated C. albicans with 100 nM of EntV or the 12mer for two hours prior to intravenous (IV) injection of 1 ×10^5 CFU.
The disseminated candidiasis model[59],[60] was performed by growing C. albicans SC5314 overnight in YPD at 30 °C, then diluting 1/100 and growing in a second overnight. The late-log phase culture was collected by centrifugation at 16,000 xg for 30 s, washed in PBS, and diluted to 5 × 10^6 cells/ml in PBS containing vehicle (0.01% DMSO) or 100 nM EntV or the 12mer peptide and incubated for 2 h at room temperature. Female ICR mice 6 wks, 18–20 g, 10/experimental group were inoculated via the lateral tail vein with 0.1 ml. Animals were monitored at least twice daily for 21 days for signs of moribundity.

[11] = 10 nM and 1 nM in drinking water

TNVGALWICGLAVIQAAQLS [α7-random]
Solubility [1]: 10 µM + | Median survival (C. albicans [2]; Fig 2C, trial 1): 7 days | Median survival (C. albicans [2]; Fig 2C, trial 2): 7 days

TNAAAAQQGGIICLLVVWLS [α7-disrupted]
Solubility [1]: 10 µM + | Median survival (C. albicans [2]; Fig 2C, trial 1): 6 days | Median survival (C. albicans [2]; Fig 2C, trial 2): 6 days

VAGQLALWAVQC [12aa]
Protection of C. elegans infected with C. neoformans (in words) [3]: protected C. neoformans infected worms from killing | Median survival (C. albicans AzS; C. albicans AzS infected C. elegans, peptides 1 nM, fluconazole 4 ug/ml, Fig 4C, trial 1): 12 days | Median survival (C. albicans AzS; C. albicans AzS infected C. elegans, peptides 1 nM, fluconazole 4 ug/ml, Fig 4C, trial 2): 10.5 days | Median survival (C. albicans AzR; trial 1): 10 days | Median survival (C. albicans AzR; trial 2): 11 days | Inhibition of C. albicans adhesion to polystyrene (in words) (C. albicans [4]; 1 h with peptide in PBS, then artificial saliva media 90 min, crystal violet): as effective in protecting against C. albicans infection in the worm model and inhibiting surface adhesion as full-length EntV | Adjusted avg (C. albicans [4]; biological replicate 1): 0.262 | Avg Percent (C. albicans [4]; biological replicate 1): 40.07% | Adjusted avg (C. albicans [4]; biological replicate 2): 0.408 | Avg Percent (C. albicans [4]; biological replicate 2): 48.28% | Adjusted avg (C. albicans [4]; biological replicate 3): 0.161 | Avg Percent (C. albicans [4]; biological replicate 3): 13.25% | Adjusted avg (C. albicans [4]; biological replicate 4): 0.232 | Avg Percent (C. albicans [4]; biological replicate 4): 27.81% | Lysis of red blood cells (in words) (RBCs; 1 nM and 1 µM peptide, 6 x 10^7 RBC cells/mL in PBS, 1 h room temperature, absorbance 410 nm, n of 6, listed as 12mer): no lysis of red blood cells; also recorded: no toxicity | fractional hemolysis (Toxicity) (RBCs; 1nM, replicate 1): 0.01086 | fractional hemolysis (Toxicity) (RBCs; 1nM, replicate 2): 0.03086 | fractional hemolysis (Toxicity) (RBCs; 1nM, replicate 3): 0.01386 | fractional hemolysis (Toxicity) (RBCs; 1nM, replicate 4): 0.05786 | fractional hemolysis (Toxicity) (RBCs; 1uM, replicate 1): 0.04886 | fractional hemolysis (Toxicity) (RBCs; 1uM, replicate 2): 0.05786 | fractional hemolysis (Toxicity) (RBCs; 1uM, replicate 3): 0.03286 | fractional hemolysis (Toxicity) (RBCs; 1uM, replicate 4): 0.08286 | stability in the presence of 10% human serum ([5]; 10% human serum, 0 Hrs, fraction relative to 0 Hrs, mean (SD) of n = 3): 1.0 (0.0) | remaining at 2 h ([5]; 10% human serum, 2 Hrs, fraction relative to 0 Hrs, mean (SD) of n = 3, read-out: stability in the presence of 10% human serum): 44.3% | remaining at 4 h ([5]; 10% human serum, 4 Hrs, fraction relative to 0 Hrs, mean (SD) of n = 3, read-out: stability in the presence of 10% human serum): 39.3% | remaining at 24 h ([5]; 10% human serum, 24 Hrs, fraction relative to 0 Hrs, mean (SD) of n = 3, read-out: stability in the presence of 10% human serum): 12.4% | Peptide detectable (percent remaining) in serum ([5]; RPMI with 10% (v/v) human serum (type AB), 37 °C, 100 µM peptide, 24-hour incubation, HPLC 280 nm, mean of n of 3): about 10% | Stability in serum (in words) ([5]; RPMI with 10% (v/v) human serum (type AB), 37 °C, 100 µM peptide, HPLC 280 nm, n of 3): not particularly stable in serum | Fungal burden on the tongue (in words) (C. albicans [6]; [11]): only a slight reduction in fungal burden on the tongue | Fungal burden in the tongue (in words) (C. albicans [6]; 50 nM in drinking water, day 5): loss of efficacy in terms of fungal burden | Fungal burden in the tongue, established infection (in words) (C. albicans [6]; 100 nM in drinking water starting at day three, sacrificed on day five): significantly less fungal burden compared to both groups of untreated animals | Fungal burden in the tongue, C. albicans DNA by qPCR (in words) (C. albicans [6]; corticosteroid-suppressed mice, 100 nM in drinking water from inoculation, day 5, listed as 12mer): equally effective; also recorded: even more effective at reducing fungal burden than 4 µg/mL fluconazole | Invasion of the tongue epithelium (in words) (C. albicans [7]; [11]): the reduction in invasion remained dramatic | Hyphal invasion of the tongue (in words) (C. albicans [7]; 50 nM in drinking water, day 5): significant lowering of hyphal invasion | Hyphal invasion relative to fluconazole (in words) (C. albicans [7]; 100 nM and 500 nM in drinking water versus 4 µg/mL fluconazole, day 5): slightly less prevalent | Epithelial / hyphal invasion of the tongue (in words) (C. albicans [7]; mouse, in vivo, listed as 12mer): at least as effective as the full length EntV; also recorded: most reduced | Survival of mice at end of experiment (in words) (C. albicans [8]): about half the animals were still alive | Reduction of catheter fungal burden (C. albicans [9]): 1.5 logs | Solubility ([1]; Supplementary Table 2, printed as '10 µM +'): 10 µM + | Protection of C. elegans against C. albicans infection (in words) (C. albicans [2]): as effective in protecting against C. albicans infection in the worm model and inhibiting surface adhesion as full-length EntV | Median survival (C. albicans [2]; Fig 3A, trial 1): 10.5 days | Median survival (C. albicans [2]; Fig 3A, trial 2): 10 days | Median survival (C. albicans [2]; Fig 3A, trial 3): 9.5 days | Median survival (C. albicans [2]; Fig 3E, trial 1): 11 days | Median survival (C. albicans [2]; Fig 3E, trial 2): 10 days | Median survival (C. albicans [2]; Fig 3E, trial 3): 10 days | C. albicans CFUs before versus after incubation with peptide (in words) (C. albicans [10]): no significant difference

OC(Cn1cncn1)(Cn1cncn1)c1ccc(F)cc1F [Flu, fluconazole, reference compound]
Median survival (C. albicans AzS; in vivo): 11 days and 10 days | Median survival (C. albicans AzR; trial 1): 8 days | Median survival (C. albicans AzR; trial 2): 6 days
